Data: patent US20120214824A1, “PROTEOSTASIS REGULATORS” (priority 2010, published 2012)

Tests used:
HMOX1 = assay: Multigene assay (QuantiGene Plex 2.0), human HeLa cell line; assay type: cell-based; settings: 6 hours post-compound treatment, Table 7
HspA5 [1] = assay: as above; assay type: cell-based; settings: 6 hours post-compound treatment, Table 7
Protocol: (§1) This assay used the QuantiGene Plex 2.0 Reagent System from Affymetrix. This assay combines the use of bDNA (branch DNA) and xMAP magnetic capture beads from Luminex Technologies to quantitatively and simultaneously detect multiple mRNA transcripts per well. The overall procedure was performed according to the QuantiGene Plex 2.0 Reagent System instruction manual from Affymetrix.
(§2) Cells were seeded at a density of 12,000 cells/well in 96-well plates with an overnight incubation at 37° C., 5% CO2. Cells were treated with serially diluted compounds in a 7-point dose dependent manner. Cell lysis with 50% [v/v] Panomics Lysis Mixture (Lysis Mixture+10 μl/ml 25 Proteinase K) was performed 6 hours post-compound treatment. Lysed cells were heated at 50° C. to ensure appropriate lysing and the plates were then frozen at −80° C. Cell lysates, thawed at room temperature on the day of the assay, were pooled with mouse 8-gene multiplex probe sets and with 8 different sets of magnetic capture beads (Luminex Technology, Austin, Tex.) in a 100 μl/well volume. Biomek FX was used at every liquid transfer step. The eight plates containing lysate-probe-bead mixtures were incubated at 54° C.±1° C. on a shaking platform for an overnight incubation in the dark (18-20 hours). The following day the hybridization plates were compressed by transferring the hybridized lysates into a single magnetic capture plate. The plate was kept on a magnet to hold the beads and then washed with Panomics Wash Buffer 2.0 on a BioTek ELx405 select plate washer to remove any unbound sample. This step was followed by serial hybridizations and washings of the bDNA pre-amplifier (1 hour, 50° C.), bDNA amplifier (1 hour, 50° C.), label probe (1 hour, 50° C.), and streptavidin-phycoerythrin (SAPE, 30 minutes, room temperature). (Zhang, A. et al. Small interfering RNA and gene expression analysis using a multiplex branched DNA assay without RNA purification. J Biomol Screen 10, 549-56 (2005)). The plate was then washed with SAPE wash buffer to remove unbound SAPE and each well was analyzed with the Luminex FlexMap3D (Luminex, Austin, Tex.). SAPE fluorescence measured from each bead was proportional to the number of mRNA transcripts captured by the beads (Zheng, Z., Luo, Y. & McMaster, G. K. Sensitive and quantitative measurement of gene expression directly from a small amount of whole blood. Clin Chem 52, 1294-302 (2006)). Fold changes in gene expression were obtained for each gene per well by normalizing the raw data first to the DMSO control and then to a housekeeping gene (TBP-TATA binding protein or Tub1-alpha-tubulin).

SQSM = assay: as above; assay type: cell-based; settings: 6 hours post-compound treatment, Table 7
Protocol: as §1, §2

Hspa1a [2] = assay: as above; assay type: cell-based; settings: 6 hours post-compound treatment, Table 7
Protocol: as §1, §2

GCLM [3] = assay: as above; assay type: cell-based; settings: 6 hours post-compound treatment, Table 7
Protocol: as §1, §2

DDIT3 [4] = assay: as above; assay type: cell-based; settings: 6 hours post-compound treatment, Table 7
[5] = tested on: medium spiny neurons in rat brain slices transfected with human mutant huntingtin-based constructs; assay: Huntington's disease brain slice-based screening assay; assay type: cell-based; settings: ex vivo rat brain slices transfected with Htt-exon1-Q73 construct; at concentrations from 0.1 uM to 3 uM (tested 0.03, 0.1, 0.3, 1 and 3 uM)
Protocol: The FIGURE is a bar graph showing the number of healthy medium spiny neurons in rat brain slices for YFP, mN90Q73, KW+SP (positive control) and for [4-(2-isopropoxyphenyl)-2-methyl-5-oxo-7-(thiophen-2-yl)-1,4,5,6,7,8-hexahydroquinoline-3-carbonitrile] exposure at 0.03, 0.1, 0.3, 1 and 3 uM. Hemi-coronal brain slices containing striatum were prepared and transfected with control and huntingtin (Htt) constructs. YFP is Yellow Fluorescence Protein (YFP) plus vector. mN90Q73 is YFP plus the Htt-exon1-Q73 construct. The combination of KW-6002 (50 uM) and SP600125 (30 uM) was used as a positive control.
Selected compounds that modulated proteostasis network genes were tested in an ex vivo screening assay in which rat brain slices were transfected with human mutant huntingtin-based constructs as described in Reinhart et al., Identification of anti-inflammatory targets for Huntington's disease using a brain slice-based screening assay, Neurobiology of Disease (2011), 43(1), 248-256, the contents of which are expressly incorporated by reference herein. Hemi-coronal brain slices containing striatum were prepared and transfected with control and huntingtin (Htt) constructs.
50 uM KW-6002 (Istradefylline) in combination with 30 uM SP600125 was used as a positive control. YFP is Yellow Fluorescence Protein (YFP) plus vector. mN90Q73 is YFP plus the Htt-exonl-Q73 construct. […]

TUB1 = assay: Multigene assay (QuantiGene Plex 2.0), mouse MEF cell line; assay type: cell-based; settings: 6 hours post-compound treatment, Table 1a
Procedure, shortened: (§3)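 Readout is SAPE bead fluorescence proportional to captured mRNA, obtained from lysates of cells exposed to serially diluted compound for 6 h. Values are fold changes relative to DMSO control, corrected against TBP or alpha-tubulin.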

HspA5 [6] = assay: as above; assay type: cell-based; settings: 6 hours post-compound treatment, Table 1b
Procedure, shortened: as §3

DDIT3 [7] = assay: as above; assay type: cell-based; settings: 6 hours post-compound treatment, Table 1a
Procedure, shortened: as §3

HMOX = assay: as above; assay type: cell-based; settings: 6 hours post-compound treatment, Table 1b
Procedure, shortened: as §3

BCL2 = assay: as above; assay type: cell-based; settings: 6 hours post-compound treatment, Table 1b
Procedure, shortened: as §3

GCLM [8] = assay: as above; assay type: cell-based; settings: 6 hours post-compound treatment, Table 1a
Procedure, shortened: as §3

HSPA1a [9] = assay: as above; assay type: cell-based; settings: 6 hours post-compound treatment, Table 1b
Procedure, shortened: as §3

firefly luciferase = assay: Luciferase folding assay (Lucif.); assay type: cell-based, human; settings: HeLa-luciferase cells; Table 1a
Description: Firefly luciferase is a commonly used bioluminescent reporter. This monomeric enzyme of 61 kDa catalyzes a two-step oxidation reaction to yield light, usually in the green to yellow region, typically 550-570 nm. The first step of this reaction is activation of the luciferyl carboxylate by ATP to yield a reactive mixed anhydride. In the second step, the activated intermediate reacts with oxygen to create a transient dioxetane that breaks down to the oxidized products, oxyluciferin and CO2. Upon mixing with substrates, firefly luciferase produces an initial burst of light that decays over about 15 seconds to a low level of sustained luminescence. This kinetic profile reflects the slow release of the enzymatic product, thus limiting catalytic turnover after the initial reaction.
This mammalian cell based assay that used firefly luciferase as a sensor was used to screen for compounds that may modulate the cellular folding environment.
HeLa luciferase cell lines: Frozen bullets containing the cells were thawed briefly at 37° C. then placed into a T-150 flask containing 30-35 ml DMEM medium+Penicillin/Strep (1% final+10% FBS (final)+Geneticin @ 200-500 ug/ml. Cell cultures were maintained at 37° C. with 5% CO2 and water in the bottom of the incubator to keep cells healthy. Upon expanding cell line, luciferase measurements were taken to make sure that activity levels were between 2000-5000 (RLU) when plated at 15K/well in a 96-well format (Bright-Glo Promega) before compound treatment.
Compound treatment of HeLa-luciferase cells: HeLa-luciferase WT cells were plated in a 96-well format at 15K/well the day prior to performing compound treatment and/or luciferase assay. […] Final volume used per well was 90 uL. Flat bottom, white polystyrene plates were used for plating the cells.
For compound treatment, stocks of compounds were made up at 10 mM concentration in DMSO. Stocks compounds were diluted by 100× fold in the same media used for culturing the cells—this leads to a 0.1 mM (or 100 uM) concentration. After diluting the compound in media, 10 uL of the 100 uM solution was placed into each well of cells (90 uL); making the final concentration of the compound 10 uM. If serial dilutions of compounds were tested, serial dilutions of compounds were first made in DMSO accordingly, and further diluted in the media, prior to adding to cells. This procedure allowed for constant final levels of DMSO concentrations, regardless of initial compound concentration.
Performing luciferase activity assay: Bright-Glo Luciferase Assay Reagent (Promega cat #: E2610, E2620, E2650) was thawed out at RT in a water bath. Alternatively, Bright-Glo Luciferase assay buffer (prior to mixing with substrate) was stored overnight at RT, prior to using.
Following compound treatment, plates were removed from 37° C. and allowed to acclimate to RT for 5-10 min. Bright-Glo reagent was added to each cell-containing well in a 1:1 ratio (e.g., 100 uL of Bright Glo for each 100 uL cells).
Plates were placed on a plate shaker for 5 min, removing any air bubbles on the surface (which may interfere with proper reads), and then read on an EnVision 2104 Multilabel reader, Emission filter Luminescence 700, barcode 212, WL 400-700 nm.
Data for representative compounds in this assay are shown under the heading “Lucif.”

SMILES | HMOX1 gene induction (HMOX1) | HspA5 gene induction (HspA5 [1]) | SQSM gene induction (SQSM) | HSPA1a gene induction (Hspa1a [2]) | GCLM gene induction (GCLM [3]) | DDIT3 gene induction (DDIT3 [4]) | medium spiny neurons viability (number of healthy medium spiny neurons) [5] | TUB1 gene induction (TUB1) | HspA5 gene induction (HspA5 [6]) | DDIT3 gene induction (DDIT3 [7]) | HMOX gene induction (HMOX) | BCL2 gene induction (BCL2) | GCLM gene induction (GCLM [8]) | HSPA1a gene induction (HSPA1a [9]) | Lucif. (luciferase activity induction) (firefly luciferase)
CC1=C(C#N)C(c2ccccc2OC(C)C)C2=C(CC(c3ccc(Cl)cc3)CC2=O)N1 (stereo not drawn) [C] | — (— Indicates less than 2 fold induction) | + (+ indicates a induction of greater than 2 fold) | — (— Indicates less than 2 fold induction) | + (+ indicates a induction of greater than 2 fold) | — (— Indicates less than 2 fold induction) | + (+ indicates a induction of greater than 2 fold) | – | – | – | – | – | – | – | – | –
CC1=C(C#N)C(c2ccccc2OC(C)C)C2=C(CC(c3ccccc3)CC2=O)N1 (stereo not drawn) [D] | + (+ indicates a induction of greater than 2 fold) | — (— Indicates less than 2 fold induction) | — (— Indicates less than 2 fold induction) | + (+ indicates a induction of greater than 2 fold) | — (— Indicates less than 2 fold induction) | — (— Indicates less than 2 fold induction) | – | – | – | – | – | – | – | – | –
CC1=C(C#N)C(c2ccccc2OC(C)C)C2=C(CC(c3cccs3)CC2=O)N1 (stereo not drawn) [drawing 26/Me/CN/o-OCHMe2, 4-(2-isopropoxyphenyl)-2-methyl-5-oxo-7-(thiophen-2-yl)-1,4,5,6,7,8-hexahydroquinoline-3-carbonitrile] | – | – | – | – | – | – | improved medium spiny neurons viability | − (− Indicates less than 2 fold induction) | − (− Indicates less than 2 fold induction) | − (− Indicates less than 2 fold induction) | − (− Indicates less than 2 fold induction) | − (− Indicates less than 2 fold induction) | − (− Indicates less than 2 fold induction) | − (− Indicates less than 2 fold induction) | + (+ indicates a induction of greater than 2 fold)
